Tests used:
rat [1] = details: Prenatal developmental toxicity study, wistar, Oral, Gavage/Intubation, dose end: 17 GD
rabbit [2] = details: Prenatal developmental toxicity study, new zealand white, Dermal, Topical, dose end: 18 GD
guinea-pig = details: Subchronic dermal toxicity, hartley, Topical, dose end: 13 week, group: systemic
rat [3] = details: Prenatal developmental toxicity study, sprague dawley, Oral, Gavage/Intubation, dose end: 16 GD
rat [4] = details: Prenatal developmental toxicity study, sprague dawley, Oral, Gavage/Intubation, dose end: 16 GD; remark: listed apart in the source
mouse [5] = details: Subchronic oral toxicity in rodents, b6c3f1, Feed, dose end: 13 week
mouse [6] = details: Fertility (Segment I); cd1; Oral; Gavage/Intubation; dose end: 1 generation; group: parental; systemic / pathology gross / sperm measure / sperm morphology
rat [7] = details: Subchronic oral toxicity in rodents, fischer, Feed, dose end: 13 week
rabbit [8] = details: Sub-acute dermal toxicity, new zealand white, Topical, dose end: 21 day, group: systemic
rat [9] = details: Prenatal developmental toxicity study, sprague dawley, Oral, Gavage/Intubation, dose end: 15 GD
mouse [10] = details: Combined chronic toxicity/carcinogenicity; other; Oral; Feed; dose end: 99 week; group: systemic; systemic / hematology / erythrocyte (rbc) count differential / erythrocyte (rbc) + systemic / hematology / hematocrit (hct) / hematocrit (…
rat [11] = details: Prenatal developmental toxicity study, sprague dawley, Oral, Gavage/Intubation, dose end: 15 GD; remark: listed apart in the source
rat [12] = details: Subchronic oral toxicity in rodents, sprague dawley, Feed, dose end: 90 day, group: systemic, systemic / organ weight / liver / absolute + systemic / organ weight / liver / relative to body weight + systemic / clinical chemistry / …
rat [13] = details: Combined chronic toxicity/carcinogenicity, fischer, Oral, Feed, dose end: 24 month, group: systemic
rabbit [14] = details: Prenatal developmental toxicity study, new zealand white, Oral, Gavage/Intubation, dose end: 19 GD
dog [15] = details: Chronic toxicity, beagle, Oral, Capsule, dose end: 52 week, group: systemic
dog [16] = details: Subchronic oral toxicity in nonrodent, beagle, Capsule, dose end: 13 week, group: systemic, systemic / organ weight / thyroid gland / absolute + systemic / organ weight / thyroid gland / relative to body weight
mouse [17] = details: Carcinogenicity; cd1; Oral; Feed; dose end: 105 week; group: systemic; systemic / pathology microscopic / liver / adenocarcinoma + systemic / pathology microscopic / liver / adenoma + systemic / pathology …
[18] = group: developmental, systemic / in life observation / body weight / offspring (pup) weight gain + developmental / developmental malformation / aortic arch / …
[19] = group: maternal, reproductive / offspring survival early / live fetuses / live fetuses + reproductive / offspring survival early / litter size / litter size…
[20] = group: developmental, developmental / developmental malformation / bone / delayed ossification + developmental / developmental malformation / bone / knobby + …
[21] = group: maternal, reproductive / reproductive performance / resorptions / resorptions + systemic / hematology / erythrocyte (rbc) count differential / …
[22] = systemic / clinical chemistry / lactic acid dehydrogenase (ldh) / lactic acid dehydrogenase (ldh) + systemic / hematology / mean corpuscular…
[23] = systemic / pathology microscopic / liver / fatty change + systemic / pathology microscopic / liver / necrosis + systemic / urinalysis / …
[24] = group: developmental, developmental / developmental malformation / bone / misaligned + developmental / developmental malformation / bone / ossification sites + …
[25] = group: maternal, reproductive / reproductive performance / resorptions / resorptions + systemic / in life observation / body weight / body weight + systemic…
[26] = group: developmental, developmental / developmental malformation / aortic arch / [other] + developmental / developmental malformation / aortic arch / malformation…
[27] = group: developmental, developmental / developmental malformation / bone / ossification sites + developmental / developmental malformation / bone / supernumerary…
[28] = group: maternal, reproductive / reproductive performance / resorptions / resorptions + reproductive / offspring survival early / litter size / litter size
[29] = group: maternal, reproductive / reproductive performance / estrous cycle / length
[30] = group: systemic, systemic / in life observation / body weight / body weight + systemic / in life observation / clinical signs / drooping eyelids (ptosis) + …
[31] = group: systemic, systemic / clinical chemistry / alkaline phosphatase (alp/alk) / alkaline phosphatase (alp/alk) + systemic / clinical chemistry / bile acids…
[32] = systemic / clinical chemistry / glucose / glucose
[33] = systemic / in life observation / clinical signs / desquamation + systemic / in life observation / clinical signs / erythema + systemic / in …
[34] = group: developmental, developmental / developmental malformation / bone / short supernumerary + developmental / developmental malformation / eye / anophthalmia + …
[35] = group: maternal, systemic / in life observation / body weight / body weight gain + systemic / in life observation / food consumption / food consumption
[36] = group: maternal, systemic / in life observation / body weight / body weight gain + systemic / in life observation / food consumption / food consumption + …
[37] = group: developmental, developmental / developmental malformation / bone / incomplete ossification + systemic / in life observation / body weight / fetal weight
[38] = group: maternal, systemic / in life observation / body weight / body weight + systemic / in life observation / body weight / body weight gain + reproductive…
[39] = systemic / organ weight / liver / absolute
[40] = systemic / organ weight / liver / absolute + systemic / pathology microscopic / liver / adenocarcinoma + systemic / pathology microscopic / …
[41] = group: developmental, developmental / developmental malformation / limb / hyperflexion + systemic / in life observation / body weight / fetal weight + …
[42] = systemic / organ weight / liver / absolute + systemic / organ weight / liver / relative to body weight
[43] = systemic / organ weight / liver / absolute + systemic / organ weight / liver / relative to body weight + systemic / clinical chemistry / …

Compound `COCCOCCO` [Diethylene glycol monomethyl ether] has an NEL (rat [1]; group: developmental, systemic / in life observation / body weight / offspring (pup) weight gain) of 200 mg/kg/day, an LOAEL (rat [1]; [18]) greater than 1800 mg/kg/day and an NOAEL (rat [1]; [18]) of no less than 1800 mg/kg/day. It also gave an LEL (rat [1]; group: developmental, systemic / in life observation / body weight / offspring (pup) weight gain + developmental / developmental malformation / bone / …) of 600 mg/kg/day, an LEL (rat [1]; group: maternal, reproductive / offspring survival early / live fetuses / live fetuses) of 600 mg/kg/day and an NEL (rat [1]; group: maternal, reproductive / offspring survival early / live fetuses / live fetuses + reproductive / offspring survival early / litter size / litter size) of 200 mg/kg/day. The LOAEL (rat [1]; [19]) was greater than 1800 mg/kg/day, the NOAEL (rat [1]; [19]) was no less than 1800 mg/kg/day and the LEL (rabbit [2]; [20]) was 250 mg/kg/day. For the same compound, the LOAEL (rabbit [2]; [20]) was greater than 750 mg/kg/day, the NEL (rabbit [2]; [20]) was 50 mg/kg/day and the NOAEL (rabbit [2]; [20]) was no less than 750 mg/kg/day. The LEL (rabbit [2]; [21]) was 750 mg/kg/day, the LOAEL (rabbit [2]; [21]) was greater than 750 mg/kg/day and the NEL (rabbit [2]; [21]) was 250 mg/kg/day. For the same compound, the NOAEL (rabbit [2]; [21]) was no less than 750 mg/kg/day, the LOAEL (guinea-pig; [22]) was greater than 1000 mg/kg/day and the NOAEL (guinea-pig; [22]) was no less than 1000 mg/kg/day. For the same compound, the LEL (guinea-pig; [23]) was 40 mg/kg/day, the NEL (guinea-pig; [23]) was less than 40 mg/kg/day and the LOAEL (rat [3]; [24]) was greater than 5180 mg/kg/day. It also gave an NEL (rat [3]; [24]) of 1000 mg/kg/day, an NOAEL (rat [3]; [24]) of no less than 5180 mg/kg/day and an LEL (rat [3]; group: developmental, developmental / developmental malformation / bone / ossification sites) of 1500 mg/kg/day. The LOAEL (rat [3]; [25]) was greater than 5180 mg/kg/day, the NEL (rat [3]; [25]) was 2240 mg/kg/day and the NOAEL (rat [3]; [25]) was no less than 5180 mg/kg/day. The LEL (rat [3]; group: maternal, systemic / in life observation / body weight / body weight + systemic / in life observation / food consumption / food consumption + …) was 3340 mg/kg/day, the LOAEL (rat [4]; [26]) was greater than 2160 mg/kg/day and the NOAEL (rat [4]; [26]) was no less than 2160 mg/kg/day. The LEL (rat [4]; [27]) was 720 mg/kg/day, the NEL (rat [4]; [27]) was less than 720 mg/kg/day and the NEL (rat [4]; group: maternal, reproductive / reproductive performance / resorptions / resorptions) was 720 mg/kg/day. For the same compound, the LEL (rat [4]; [28]) was 2160 mg/kg/day, the LOAEL (rat [4]; [28]) was greater than 2160 mg/kg/day and the NOAEL (rat [4]; [28]) was no less than 2160 mg/kg/day.
`NC(=Nc1ccccc1)Nc1ccccc1` [1,3-Diphenylguanidine] gave an LEL (mouse [5]; [29]) of 577 mg/kg/day, an LOAEL (mouse [5]; [29]) greater than 577 mg/kg/day and an NEL (mouse [5]; [29]) of 285 mg/kg/day. For the same compound, the NOAEL (mouse [5]; [29]) was no less than 577 mg/kg/day, the LOAEL (mouse [5]; group: systemic, systemic / in life observation / body weight / body weight + systemic / in life observation / clinical signs / drooping eyelids (ptosis)) was 231 mg/kg/day and the NEL (mouse [5]; [30]) was 38 mg/kg/day. The NOAEL (mouse [5]; [30]) was 114 mg/kg/day, the LEL (mouse [5]; group: systemic, systemic / organ weight / liver / relative to body weight) was 75 mg/kg/day and the LEL (mouse [6]) was 16 mg/kg/day. It also gave an LOAEL (mouse [6]) greater than 16 mg/kg/day, an NEL (mouse [6]) of 4 mg/kg/day and an NOAEL (mouse [6]) of no less than 16 mg/kg/day. It also gave an LEL (rat [7]; [29]) of 49 mg/kg/day, an LOAEL (rat [7]; [29]) greater than 184 mg/kg/day and an NEL (rat [7]; [29]) of 32 mg/kg/day. It also gave an NOAEL (rat [7]; [29]) of no less than 184 mg/kg/day, an LEL (rat [7]; [31]) of 17 mg/kg/day and an LOAEL (rat [7]; [31]) of 95 mg/kg/day. It also gave an NEL (rat [7]; [31]) of less than 17 mg/kg/day and an NOAEL (rat [7]; [31]) of 49 mg/kg/day.
`O=S(=O)(C(Cl)(Cl)Cl)C(Cl)(Cl)Cl` [Bis(trichloromethyl)sulfone] showed an LEL (rabbit [8]; [32]) of 0.8 mg/kg/day, an NEL (rabbit [8]; [32]) of less than 0.8 mg/kg/day and an LOAEL (rabbit [8]; [33]) of 5 mg/kg/day. The NOAEL (rabbit [8]; [33]) was 2 mg/kg/day, the LEL (rat [9]; [34]) was 50 mg/kg/day and the LOAEL (rat [9]; [34]) was 50 mg/kg/day. For the same compound, the NEL (rat [9]; [34]) was 10 mg/kg/day, the NOAEL (rat [9]; [34]) was 10 mg/kg/day and the LEL (rat [9]; [35]) was 10 mg/kg/day. It also gave an LOAEL (rat [9]; [35]) of 10 mg/kg/day, an NEL (rat [9]; [36]) of 2 mg/kg/day and an NOAEL (rat [9]; [36]) of 2 mg/kg/day.
`CC(C)Oc1cc(-n2nc(C(C)(C)C)oc2=O)c(Cl)cc1Cl` [Oxadiazon] was tested, and the LEL (mouse [10]) was 0.315 mg/kg/day, the LOAEL (mouse [10]) was 10.6 mg/kg/day and the NEL (mouse [10]) was less than 0.315 mg/kg/day. For the same compound, the NOAEL (mouse [10]) was 1.09 mg/kg/day, the LEL (rat [11]; [37]) was 40 mg/kg/day and the LOAEL (rat [11]; [37]) was 40 mg/kg/day. It also gave an NEL (rat [11]; [37]) of 12 mg/kg/day, an NOAEL (rat [11]; [37]) of 12 mg/kg/day and an LOAEL (rat [11]; group: maternal, systemic / in life observation / body weight / body weight + systemic / in life observation / body weight / body weight gain) of 40 mg/kg/day. The LEL (rat [11]; [38]) was 40 mg/kg/day, the NEL (rat [11]; [38]) was 12 mg/kg/day and the NOAEL (rat [11]; [38]) was 12 mg/kg/day. The LEL (rat [12]) was 100 mg/kg/day, the LOAEL (rat [12]) was 100 mg/kg/day and the NEL (rat [12]) was 25 mg/kg/day. For the same compound, the NOAEL (rat [12]) was 25 mg/kg/day, the LEL (rat [13]; [39]) was 4.8 mg/kg/day and the LOAEL (rat [13]; [39]) was 4.8 mg/kg/day. For the same compound, the NEL (rat [13]; [40]) was 0.5 mg/kg/day, the NOAEL (rat [13]; [40]) was 0.5 mg/kg/day and the LEL (rabbit [14]; [41]) was 180 mg/kg/day. It also gave an LOAEL (rabbit [14]; [41]) of 180 mg/kg/day, an NEL (rabbit [14]; [41]) of 60 mg/kg/day and an NOAEL (rabbit [14]; [41]) of 60 mg/kg/day. It also gave an LEL (rabbit [14]; [35]) of 60 mg/kg/day, an LOAEL (rabbit [14]; [35]) of 60 mg/kg/day and an NEL (rabbit [14]; [36]) of 20 mg/kg/day. For the same compound, the NOAEL (rabbit [14]; [36]) was 20 mg/kg/day, the LEL (dog [15]; [42]) was 20 mg/kg/day and the LOAEL (dog [15]; [42]) was 20 mg/kg/day. For the same compound, the NEL (dog [15]; [43]) was 5 mg/kg/day, the NOAEL (dog [15]; [43]) was 5 mg/kg/day and the LEL (dog [16]) was 25 mg/kg/day. It also gave an LOAEL (dog [16]) of 25 mg/kg/day, an NEL (dog [16]) of less than 25 mg/kg/day and an NOAEL (dog [16]) of less than 25 mg/kg/day. For the same compound, the LEL (mouse [17]) was 12 mg/kg/day, the LOAEL (mouse [17]) was 12 mg/kg/day and the NEL (mouse [17]) was less than 12 mg/kg/day. It also gave an NOAEL (mouse [17]) of less than 12 mg/kg/day.

Source: EPA's ToxRefDB 2
